# Test results as given in publication PMC3128679 (Bioorganic & medicinal chemistry letters, 2011).
# pIC50: −log10 of the molar value.
# Assays:
# Format in all cases: biochemical
# SHP2 [1] = molecular target: T1, SHP2 (Homo sapiens, UniProt Q06124); test: in vitro SHP2 inhibition assay; details: for SHP2 inhibition at 1 mM: 1 mM compound concentration
# T1 sequence (Q06124 1-593): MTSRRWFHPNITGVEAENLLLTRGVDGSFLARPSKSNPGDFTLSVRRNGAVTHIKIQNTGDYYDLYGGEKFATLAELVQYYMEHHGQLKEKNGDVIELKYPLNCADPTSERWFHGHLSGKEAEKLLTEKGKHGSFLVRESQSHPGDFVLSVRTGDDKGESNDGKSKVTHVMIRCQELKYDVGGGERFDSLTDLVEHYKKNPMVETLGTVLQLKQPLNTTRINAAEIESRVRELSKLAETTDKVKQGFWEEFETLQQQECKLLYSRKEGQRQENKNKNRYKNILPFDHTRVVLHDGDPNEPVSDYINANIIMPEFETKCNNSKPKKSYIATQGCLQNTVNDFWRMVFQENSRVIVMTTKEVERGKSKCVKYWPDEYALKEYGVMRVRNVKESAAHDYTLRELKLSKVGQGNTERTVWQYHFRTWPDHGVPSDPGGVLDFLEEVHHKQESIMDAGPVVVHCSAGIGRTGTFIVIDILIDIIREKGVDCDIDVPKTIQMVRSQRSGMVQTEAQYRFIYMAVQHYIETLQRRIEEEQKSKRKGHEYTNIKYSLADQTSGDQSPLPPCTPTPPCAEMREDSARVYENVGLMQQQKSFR
# SHP1 = SHP1 (Homo sapiens, UniProt P29350); test: SHP1 inhibition assay
# Chain of SHP1 (P29350 whole entry): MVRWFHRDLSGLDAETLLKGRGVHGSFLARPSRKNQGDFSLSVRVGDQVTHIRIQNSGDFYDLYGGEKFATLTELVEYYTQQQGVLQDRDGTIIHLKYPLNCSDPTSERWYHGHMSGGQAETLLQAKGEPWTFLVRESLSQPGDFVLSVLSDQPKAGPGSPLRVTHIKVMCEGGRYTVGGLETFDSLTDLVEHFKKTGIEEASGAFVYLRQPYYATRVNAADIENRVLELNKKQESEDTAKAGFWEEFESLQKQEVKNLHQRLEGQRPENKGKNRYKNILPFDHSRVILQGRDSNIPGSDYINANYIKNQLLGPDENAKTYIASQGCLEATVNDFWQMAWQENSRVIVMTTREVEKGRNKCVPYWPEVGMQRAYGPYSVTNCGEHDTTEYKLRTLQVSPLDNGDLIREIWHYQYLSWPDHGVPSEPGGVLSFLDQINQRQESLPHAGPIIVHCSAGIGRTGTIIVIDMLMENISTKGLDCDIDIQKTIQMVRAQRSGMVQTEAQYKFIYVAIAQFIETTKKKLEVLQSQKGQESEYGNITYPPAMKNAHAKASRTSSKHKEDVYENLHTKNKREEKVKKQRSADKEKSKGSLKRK
# PTP1B = molecular target: T2, PTP1B (Homo sapiens, UniProt P18031); test: PTP1B inhibition assay
# T2 sequence (P18031 1-435): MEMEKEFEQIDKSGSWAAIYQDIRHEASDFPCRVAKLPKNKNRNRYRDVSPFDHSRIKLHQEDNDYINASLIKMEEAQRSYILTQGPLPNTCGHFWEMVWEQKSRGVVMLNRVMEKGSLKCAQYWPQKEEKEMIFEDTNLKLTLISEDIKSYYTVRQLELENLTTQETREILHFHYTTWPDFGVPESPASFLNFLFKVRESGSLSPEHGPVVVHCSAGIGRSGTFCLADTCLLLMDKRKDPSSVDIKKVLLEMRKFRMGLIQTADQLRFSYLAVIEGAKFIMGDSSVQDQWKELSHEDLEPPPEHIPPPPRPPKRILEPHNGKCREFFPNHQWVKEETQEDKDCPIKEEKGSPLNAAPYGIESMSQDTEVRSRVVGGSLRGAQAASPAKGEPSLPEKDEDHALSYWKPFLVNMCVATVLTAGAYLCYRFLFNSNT
# LYP = molecular target: T3, LYP (Homo sapiens, UniProt Q9Y2R2); test: PTP panel inhibition assay, LYP; details: at 100 µM
# T3 sequence (Q9Y2R2 1-807): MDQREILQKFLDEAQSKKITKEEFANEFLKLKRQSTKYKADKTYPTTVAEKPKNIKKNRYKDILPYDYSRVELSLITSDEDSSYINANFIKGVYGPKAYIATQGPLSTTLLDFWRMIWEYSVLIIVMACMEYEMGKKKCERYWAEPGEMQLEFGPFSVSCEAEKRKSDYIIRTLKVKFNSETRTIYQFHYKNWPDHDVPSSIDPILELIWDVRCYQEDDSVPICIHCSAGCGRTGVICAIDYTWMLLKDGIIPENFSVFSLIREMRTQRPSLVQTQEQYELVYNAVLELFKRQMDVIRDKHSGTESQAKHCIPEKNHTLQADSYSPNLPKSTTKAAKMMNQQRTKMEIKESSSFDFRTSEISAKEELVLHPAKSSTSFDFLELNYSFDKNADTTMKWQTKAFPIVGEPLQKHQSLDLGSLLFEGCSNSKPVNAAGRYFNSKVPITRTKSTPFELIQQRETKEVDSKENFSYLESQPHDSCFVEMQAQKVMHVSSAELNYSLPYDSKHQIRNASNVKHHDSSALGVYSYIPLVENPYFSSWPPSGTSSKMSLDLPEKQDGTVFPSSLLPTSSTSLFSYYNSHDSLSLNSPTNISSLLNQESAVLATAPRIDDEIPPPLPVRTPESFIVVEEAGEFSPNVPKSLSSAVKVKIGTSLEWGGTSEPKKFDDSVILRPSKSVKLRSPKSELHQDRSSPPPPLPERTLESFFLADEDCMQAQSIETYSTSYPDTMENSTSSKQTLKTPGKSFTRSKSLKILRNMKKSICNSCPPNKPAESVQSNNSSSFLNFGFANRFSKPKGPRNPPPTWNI
# PTPα = PTPα (Homo sapiens, UniProt P18433); test: PTP panel inhibition assay, PTPα; details: at 100 µM
# Chain of PTPα (P18433 20-802): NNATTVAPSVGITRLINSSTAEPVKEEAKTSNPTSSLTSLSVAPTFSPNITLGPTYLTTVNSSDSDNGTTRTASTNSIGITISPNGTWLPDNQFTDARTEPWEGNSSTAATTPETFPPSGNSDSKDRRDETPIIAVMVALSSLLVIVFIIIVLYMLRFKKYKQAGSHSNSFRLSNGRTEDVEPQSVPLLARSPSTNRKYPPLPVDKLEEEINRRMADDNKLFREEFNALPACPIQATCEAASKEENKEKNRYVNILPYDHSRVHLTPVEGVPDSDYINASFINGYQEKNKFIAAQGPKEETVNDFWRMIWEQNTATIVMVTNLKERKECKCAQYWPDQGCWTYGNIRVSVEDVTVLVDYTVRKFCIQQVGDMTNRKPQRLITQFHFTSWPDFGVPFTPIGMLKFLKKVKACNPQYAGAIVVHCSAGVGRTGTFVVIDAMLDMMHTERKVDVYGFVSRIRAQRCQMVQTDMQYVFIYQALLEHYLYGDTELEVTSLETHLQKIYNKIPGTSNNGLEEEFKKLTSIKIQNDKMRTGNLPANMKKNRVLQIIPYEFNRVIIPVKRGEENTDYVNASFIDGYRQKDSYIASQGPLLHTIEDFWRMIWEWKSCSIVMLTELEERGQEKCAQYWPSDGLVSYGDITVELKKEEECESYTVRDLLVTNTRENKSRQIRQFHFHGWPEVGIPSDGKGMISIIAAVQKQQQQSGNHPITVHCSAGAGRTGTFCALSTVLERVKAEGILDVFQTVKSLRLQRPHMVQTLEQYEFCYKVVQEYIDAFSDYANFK
# VHR = VHR (Homo sapiens, UniProt P51452); test: PTP panel inhibition assay, VHR; details: at 100 µM
# Chain of VHR (P51452 whole entry, species assumed): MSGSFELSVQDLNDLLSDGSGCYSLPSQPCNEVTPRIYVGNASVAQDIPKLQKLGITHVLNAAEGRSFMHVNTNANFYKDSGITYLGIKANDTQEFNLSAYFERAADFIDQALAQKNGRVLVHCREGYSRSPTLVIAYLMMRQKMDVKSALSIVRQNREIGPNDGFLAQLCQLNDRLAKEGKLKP
# Cdc14 = test: PTP panel inhibition assay, Cdc14; details: at 100 µM
# SHP2 [2] = molecular target: T1, SHP2; test: steady-state enzyme kinetic analysis of SHP2 inhibition; details: C21 at 0, 4, 8 and 12 µM
structure (smiles),measurement,setting,value
CC(=O)N(c1ccc2oc3c(c2c1)CCCC3)S(=O)(=O)c1ccc(C(=O)O)cc1 [Compound C18],concentration dependence of SHP2 inhibition,SHP2 [1],concentration-dependent inhibition
same,inhibitory activity against SHP2 (in words),SHP2 [1],only moderate inhibitory activity
same,inhibition against SHP1 compared with SHP2 (in words),SHP1,better inhibition
same,inhibition against PTP1B compared with SHP2 (in words),PTP1B,better inhibition
Cc1cc(S(=O)(=O)O)ccc1N1N=C(C(=O)O)CC1=O [Compound C21-A1],fold decreased SHP2 inhibition,SHP2 [1]; relative to C21,~ 5 fold
O=C(O)C1=NN(c2ccc(S(=O)(=O)O)cc2)C(=O)C1 [Compound C21-A2],fold decreased affinity for SHP2,SHP2 [1]; relative to C21-A1,~ 4 fold
O=C(O)C1=NN(c2ccccc2)C(=O)C1 [Compound C21-A3],pIC50,SHP2 [1],< 3.00
same,SHP2 inhibition at 1 mM,SHP2 [1],failed to inhibit SHP2
CC1=NN(c2ccc(S(=O)(=O)O)cc2C)C(=O)C1 [Compound C21-A4],pIC50,SHP2 [1],< 3.00
same,SHP2 inhibition at 1 mM,SHP2 [1],failed to inhibit SHP2
Cc1cc(S(=O)(=O)O)c(S(=O)(=O)O)cc1N1N=C(C(=O)O)CC1=O [Compound C21],concentration dependence of SHP2 inhibition,SHP2 [1],concentration-dependent inhibition
same,inhibition of LYP,LYP,almost no inhibition
same,inhibition of PTPα,PTPα,almost no inhibition
same,inhibition of VHR,VHR,almost no inhibition
same,inhibition of Cdc14,Cdc14,almost no inhibition
same,mode of inhibition against SHP2,SHP2 [2],reversible and competitive
CC(=O)c1c(C)oc2ccc(NS(=O)(=O)c3cccc(C(=O)O)c3)cc12 [Compound C30],concentration dependence of SHP2 inhibition,SHP2 [1],concentration-dependent inhibition
same,inhibitory activity against SHP2 (in words),SHP2 [1],only moderate inhibitory activity
same,inhibition against SHP1 compared with SHP2 (in words),SHP1,better inhibition
same,inhibition against PTP1B compared with SHP2 (in words),PTP1B,better inhibition
